Reference: patent publication US8003783B2, “17B-hydroxysteroid dehydrogenase inhibitors” (Sterix Limited, priority 2004, dated 2011)
“And” between values parts separate entries of the source, which are not always exact repeats. Equal values may be shown once. Read-outs that look alike come from different tables or passages of the source.

Experiments:
17β-HSD1 = molecular target: T1, 17β-HSD1 (Homo sapiens, UniProt P14061); experiment: 17β-HSD Type I activity in T-47D cells (E1→E2); assay type: cell-based; details: for inhibition at 10 µM: T47D, read-out: % inhibition of 17β-HSD1 @ 10 μM
T1 construct: was measured in intact cell monolayers of T47D and MDA-MB-231 breast cancer cells respectively; endogenous in cells; host or cells: T-47D human breast cancer cells
T1 sequence (P14061 1-328): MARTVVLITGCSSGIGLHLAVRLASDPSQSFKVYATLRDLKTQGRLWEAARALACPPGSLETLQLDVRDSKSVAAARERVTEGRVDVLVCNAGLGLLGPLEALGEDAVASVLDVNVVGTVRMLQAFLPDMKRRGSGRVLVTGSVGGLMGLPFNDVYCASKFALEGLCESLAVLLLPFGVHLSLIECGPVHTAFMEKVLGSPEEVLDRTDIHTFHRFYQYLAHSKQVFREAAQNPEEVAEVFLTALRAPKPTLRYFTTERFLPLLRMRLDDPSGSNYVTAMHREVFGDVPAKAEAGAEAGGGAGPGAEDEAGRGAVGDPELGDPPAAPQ

17β-HSD2 = molecular target: T2, 17β-HSD2 (Homo sapiens, UniProt P37059); experiment: 17β-HSD Type II activity in MDA-MB-231 cells (E2→E1); assay type: cell-based; details: MDA-MB-231 cells, E2→E1; for inhibition at 10 µM: read-out: % inhibition of 17β-HSD2 @ 10 μM
T2 construct: was measured in intact cell monolayers of T47D and MDA-MB-231 breast cancer cells respectively; endogenous in cells; host or cells: MDA-MB-231 human breast cancer cells
T2 sequence (P37059 1-387): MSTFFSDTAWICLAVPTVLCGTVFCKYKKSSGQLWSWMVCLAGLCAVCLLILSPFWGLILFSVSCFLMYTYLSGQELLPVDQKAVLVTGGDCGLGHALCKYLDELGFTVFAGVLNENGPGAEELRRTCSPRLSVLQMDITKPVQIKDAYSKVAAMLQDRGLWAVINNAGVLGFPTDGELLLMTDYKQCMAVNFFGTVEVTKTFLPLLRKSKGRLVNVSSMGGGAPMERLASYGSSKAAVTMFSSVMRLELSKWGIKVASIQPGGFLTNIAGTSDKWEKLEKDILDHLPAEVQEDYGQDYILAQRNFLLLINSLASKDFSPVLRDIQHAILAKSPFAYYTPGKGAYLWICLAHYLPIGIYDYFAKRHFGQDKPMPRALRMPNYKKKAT

[1] = T-47D cells, E1→E2, read-out: IC50 (17β-HSD1)

SMILES | inhibition at 10 µM (17β-HSD1; T-47D cells, E1→E2) [%] | inhibition at 10 µM (17β-HSD2) [%] | IC50 (17β-HSD2) [µM] | % inhibition of 17β-HSD1 @ 10 μM (17β-HSD1; T-47D cells, E1→E2) | IC50 (17β-HSD1; [1]) [µM] | IC50 (17β-HSD1) [µM]
CN(C)c1ccc(/C=C2\CC3C4CCc5cc(O)ccc5C4CC[C@]3(C)[C@H]2O)cc1 (stereo in doubt) [compound 511, 16-(4-Dimethylamino-benzylidene)-13-methyl-7,8,9,11,12,13,14,15,16,17-decahydro-6H-cyclopenta[a]phenanthrene-3,17-diol] | 72 | 81 | 5.4 | – | – | –
C[C@]12CCC3c4ccc(O)cc4CCC3C1CC(Cc1cccnc1)[C@@H]2O (stereo in doubt) [compound 542, 13-Methyl-16-pyridin-3-ylmethyl-7,8,9,11,12,13,14,15,16,17-decahydro-6H-cyclopenta[a]phenanthrene-3,17-diol] | 87 | 11 | – | – | – | –
C[C@]12CCC3c4ccc(O)cc4CCC3C1CC(C#N)C2=O (stereo partly shown) [compound 207] | 83 | 17 | – | 71% | 10 | –
COc1cc2c(cc1O)CCC1C2CC[C@]2(C)C(=O)C(C#N)CC12 (stereo partly shown) [compound 208] | 35 | 4 | – | 31% | – | –
C[C@]12CCC3c4ccc(OS(N)(=O)=O)cc4CCC3C1CC(C#N)C2=O (stereo partly shown) [compound 209] | 71 | 18 | – | 73% | 10 | –
COc1cc2c(cc1OS(N)(=O)=O)CCC1C2CC[C@]2(C)C(=O)C(C#N)CC12 (stereo partly shown) [compound 210] | 95 | 8 | – | – | 2.1 | –
C[C@]12CCC3c4ccc(O)cc4CCC3C1C/C(=C\c1ccccc1)[C@@H]2O (stereo partly shown) [compound 313] | 26 | 5 | – | – | – | –
C[C@]12CCC3c4ccc(OS(N)(=O)=O)cc4CCC3C1C/C(=C\c1ccccc1)C2=O (stereo partly shown) [compound 314] | -1 | 1 | – | – | – | –
C[C@]12CCC3c4ccc(OS(N)(=O)=O)cc4CCC3C1C/C(=C\c1ccccc1)[C@@H]2O (stereo partly shown) [compound 315] | 4 | 1 | – | – | – | –
C[C@]12CCC3c4ccc(O)cc4CCC3C1C/C(=C\c1ccccn1)C2=O (stereo partly shown) [compound 319] | 23 | 16 | – | – | – | –
C[C@]12CCC3c4ccc(O)cc4CCC3C1C/C(=C\c1cccnc1)C2=O (stereo partly shown) [compound 320] | 44 | 10 | – | – | – | –
C[C@]12CCC3c4ccc(O)cc4CCC3C1C/C(=C\c1ccncc1)C2=O (stereo partly shown) [compound 321] | 34 | 25 | – | – | – | –
C[C@]12CCC3c4ccc(O)cc4CCC3C1C/C(=C\c1ccccn1)[C@@H]2O (stereo partly shown) [compound 322] | 55 | 17 | – | – | – | –
C[C@]12CCC3c4ccc(O)cc4CCC3C1C/C(=C\c1cccnc1)[C@@H]2O (stereo partly shown) [compound 323] | 52 | 43 | – | – | – | –
C[C@]12CCC3c4ccc(O)cc4CCC3C1C/C(=C\c1ccncc1)[C@@H]2O (stereo partly shown) [compound 324] | 81 | 3 | – | 72% | – | 4.1
C[C@]12CCC3c4ccc(O)cc4CCC3C1C/C(=N/O)C2=O (stereo partly shown) [compound 327] | 96 | 5 | – | 94% | 1.1 | –
COc1cc(/C=C2\CC3C4CCc5cc(O)ccc5C4CC[C@]3(C)C2=O)cc(OC)c1OC (stereo partly shown) [compound 328] | 24 | -12 | – | – | – | –
COc1cc(/C=C2\CC3C4CCc5cc(O)ccc5C4CC[C@]3(C)[C@H]2O)cc(OC)c1OC (stereo partly shown) [compound 329] | – | 3 | – | 63% and 33% | – | –
CCOC(=O)/C(O)=C1\CC2C3CCc4cc(O)ccc4C3CC[C@]2(C)C1=O (stereo partly shown) [compound 330] | 72 | 7 | – | 77% | – | –
C[C@]12CCC3c4ccc(OS(N)(=O)=O)cc4CCC3C1C/C(=N/O)C2=O (stereo partly shown) [compound 337] | 47 | 8 | – | – | – | –
C[C@]12CCC3c4ccc(O)cc4CCC3C1CC(=N/O)/C2=N\O (stereo partly shown) [compound 338] | 55 | -2 | – | – | – | –
C[C@]12CCC3c4ccc(O)cc4C(=O)CC3C1CCC2=O (stereo partly shown) [compound 416] | 98 | 8 | – | – | 0.34 | –

SMILES | inhibition at 10 µM (17β-HSD1; T-47D cells, E1→E2) [%] | inhibition at 10 µM (17β-HSD2) [%] | IC50 (17β-HSD2) [µM] | % inhibition of 17β-HSD1 @ 10 μM (17β-HSD1; T-47D cells, E1→E2) | IC50 (17β-HSD1; [1]) [µM] | IC50 (17β-HSD1) [µM]
C[C@]12CCC3c4ccc(OS(N)(=O)=O)cc4CCC3C1C/C(=C\c1ccncc1)C2=O (stereo partly shown) [compound 452] | 28 | 11 | – | – | – | –
C[C@]12CCC3c4ccc(OS(N)(=O)=O)cc4CCC3C1C/C(=C\c1cccnc1)C2=O (stereo partly shown) [compound 453] | 22 | 10 | – | – | – | –
C[C@]12CCC3c4ccc(O)cc4/C(=N\O)CC3C1CC/C2=N\O (stereo partly shown) [compound 454] | – | 27 | – | – | 1.9 | –
C[C@]12CCC3c4ccc(O)cc4CCC3C1C/C(=C\c1ccco1)C2=O (stereo partly shown) [compound 474] | 26 | 17 | – | – | – | –
C[C@]12CCC3c4ccc(O)cc4CCC3C1C/C(=C\c1cccs1)C2=O (stereo partly shown) [compound 475] | 67 | 14 | – | – | – | –
CN(C)c1ccc(/C=C2\CC3C4CCc5cc(O)ccc5C4CC[C@]3(C)C2=O)cc1 (stereo partly shown) [compound 477, 16-(4-Dimethylamino-benzylidene)-3-hydroxy-13-methyl-6,7,8,9,11,12,13,14,15,16-decahydro-cyclopenta[a]phenanthron-17-one] | 72 | 13 | – | – | – | –
C[C@]12CCC3c4ccc(O)cc4CCC3C1C/C(=C\c1ccc(C#N)cc1)C2=O (stereo partly shown) [compound 478] | 39 | 18 | – | – | – | –
C[C@]12CCC3c4ccc(O)cc4CCC3C1C/C(=C/O)C2=O (stereo partly shown) [compound 486] | 97 | 15 | – | – | 0.11 | –
C[C@]12CCC3c4ccc(O)cc4CCC3C1C/C(=C\c1cccs1)[C@@H]2O (stereo partly shown) [compound 507] | 41 | 25 | – | – | – | –
C[C@]12CCC3c4ccc(O)cc4CCC3C1C/C(=C\c1ccc(C#N)cc1)[C@@H]2O (stereo partly shown) [compound 510] | 57 | 31 | – | – | – | –
CO/N=C1\CC2C(CC[C@]3(C)/C(=N/OC)CCC23)c2ccc(O)cc21 (stereo partly shown) [compound 515] | 15 | 31 | – | – | – | –
C[C@]12CCC3c4ccc(O)cc4CCC3C1CC(Cc1ccncc1)[C@@H]2O (stereo partly shown) [compound 543, 13-Methyl-16-pyridin-4-ylmethyl-7,8,9,11,12,13,14,15,16,17-decahydro-6H-cyclopenta[a]phenanthrene-3,17-diol] | 84 | 37 | – | – | – | –
C[C@]12CCC3c4ccc(O)cc4CCC3C1CC(C#N)[C@@H]2O (stereo partly shown) [compound 561] | 56 | 4 | – | – | – | –
C[C@]12CCC3c4ccc(O)cc4CCC3C1CC(Cc1ccccn1)[C@@H]2O (stereo partly shown) [compound 567, 13-Methyl-16-pyridin-2-ylmethyl-7,8,9,11,12,13,14,15,16,17-decahydro-6H-cyclopenta[□]phenanthrene-3-17-diol] | 88 | 11 | – | – | – | –
COC(=O)C1CC2C3CCc4cc(O)ccc4C3CC[C@]2(C)C1=O (stereo partly shown) [compound 568] | 69 | 9 | – | – | – | –
CC(C)/C=C1\CC2C3CCc4cc(O)ccc4C3CC[C@]2(C)C1=O (stereo partly shown) [compound 571] | 71 | 18 | – | – | – | –
COC(=O)C1CC2C3CCc4cc(O)ccc4C3CC[C@]2(C)[C@H]1O (stereo partly shown) [compound 572] | 63 | 2 | – | – | – | –
CCOC(=O)CC1CC2C3CCc4cc(O)ccc4C3CC[C@]2(C)C1=O (stereo partly shown) [compound 573] | 97 | 18 | – | – | – | 0.3
CCOC(=O)CC1CC2C3CCc4cc(O)ccc4C3CC[C@]2(C)[C@H]1O (stereo partly shown) [compound 574] | 67 | 18 | – | – | – | –
CN(C)c1ccc(CC2CC3C4CCc5cc(O)ccc5C4CC[C@]3(C)[C@H]2O)cc1 (stereo partly shown) [compound 594, 16-(4-Dimethylamino-benzyl)-13-methyl-7,8,9,11,12,13,14,15,16,17-decahydro-6H-cyclopenta[a]phenanthrene-3,17-diol] | 41 | 25 | – | – | – | –
C[C@]12CCC3c4ccc(O)cc4CCC3C1CC(CC(=O)O)[C@@H]2O (stereo partly shown) [compound 603] | 58 | 0 | – | – | – | –
C[C@]12CCC3C4CC=C(O)C=C4CCC3C1CC(CC(=O)O)C2=O (stereo partly shown) [compound 604] | 13 | -5 | – | – | – | –
